Experimental data reported in PubChem BioAssay (NCI).
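Interpolation was linear, between the two tested concentrations surrounding the appropriate level; five concentrations were tested over 48 hours in 96-well plates. GI50 marks 50% less growth. TGI: total growth inhibition.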

Experiments:
Test in all cases: NCI tumour cell line growth inhibition, 48 h
786-0 renal = system: 786-0 renal
A498 renal = system: A498 renal
A549 NSCLC = system: A549 NSCLC
ACHN renal = system: ACHN renal
BT-549 breast = system: BT-549 breast
CAKI-1 renal = system: CAKI-1 renal
CCRF-CEM leukemia = system: CCRF-CEM leukemia
COLO 205 colon = system: COLO 205 colon
DU-145 prostate = system: DU-145 prostate
EKVX NSCLC = system: EKVX NSCLC
HCC-2998 colon = system: HCC-2998 colon
HCT-116 colon = system: HCT-116 colon
HCT-15 colon = system: HCT-15 colon
HOP-62 NSCLC = system: HOP-62 NSCLC
HOP-92 NSCLC = system: HOP-92 NSCLC
HS 578T breast = system: HS 578T breast
IGROV1 ovarian = system: IGROV1 ovarian
K-562 leukemia = system: K-562 leukemia
KM12 colon = system: KM12 colon
LOX IMVI melanoma = system: LOX IMVI melanoma
M14 melanoma = system: M14 melanoma
MALME-3M melanoma = system: MALME-3M melanoma
MCF7 breast = system: MCF7 breast
MDA-MB-231 breast = system: MDA-MB-231 breast
MDA-MB-435 = system: MDA-MB-435
MOLT-4 leukemia = system: MOLT-4 leukemia
NCI-H226 lung = system: NCI-H226 lung
NCI-H23 lung = system: NCI-H23 lung
NCI-H460 lung = system: NCI-H460 lung
NCI-H522 lung = system: NCI-H522 lung
NCI/ADR-RES ovarian = system: NCI/ADR-RES ovarian
OVCAR-3 ovarian = system: OVCAR-3 ovarian
OVCAR-4 ovarian = system: OVCAR-4 ovarian
OVCAR-5 ovarian = system: OVCAR-5 ovarian
OVCAR-8 ovarian = system: OVCAR-8 ovarian
PC-3 prostate = system: PC-3 prostate
RPMI-8226 leukemia = system: RPMI-8226 leukemia
RXF 393 renal = system: RXF 393 renal
SF-268 CNS = system: SF-268 CNS
SF-295 CNS = system: SF-295 CNS
SF-539 CNS = system: SF-539 CNS
SK-MEL-2 melanoma = system: SK-MEL-2 melanoma
SK-MEL-5 melanoma = system: SK-MEL-5 melanoma
SK-OV-3 ovarian = system: SK-OV-3 ovarian
SN12C renal = system: SN12C renal
SNB-19 CNS = system: SNB-19 CNS
SR leukemia = system: SR leukemia
SW-620 colon = system: SW-620 colon
TK-10 renal = system: TK-10 renal
U251 CNS = system: U251 CNS
UACC-257 melanoma = system: UACC-257 melanoma
UACC-62 melanoma = system: UACC-62 melanoma
UO-31 renal = system: UO-31 renal
HL-60(TB) leukemia = system: HL-60(TB) leukemia
HT29 colon = system: HT29 colon
SK-MEL-28 melanoma = system: SK-MEL-28 melanoma
SNB-75 CNS = system: SNB-75 CNS
T-47D breast = system: T-47D breast

Oc1ccc(C(c2ccccc2)(c2ccccc2)c2ccccc2)cc1
GI50 (786-0 renal): 14.4 µM | TGI (786-0 renal): 29.7 µM | GI50 (A498 renal): 20.5 µM | TGI (A498 renal): 35.1 µM | GI50 (A549 NSCLC): 12.8 µM | TGI (A549 NSCLC): 29 µM | GI50 (ACHN renal): 21.9 µM | TGI (ACHN renal): 41.4 µM | GI50 (BT-549 breast): 17.1 µM | TGI (BT-549 breast): 31.3 µM | GI50 (CAKI-1 renal): 14 µM | TGI (CAKI-1 renal): 29.6 µM | GI50 (CCRF-CEM leukemia): 21.1 µM | TGI (CCRF-CEM leukemia): 39.5 µM | GI50 (COLO 205 colon): 15.5 µM | TGI (COLO 205 colon): 29.8 µM | GI50 (DU-145 prostate): 13.3 µM | TGI (DU-145 prostate): 27.8 µM | GI50 (EKVX NSCLC): 15.4 µM | TGI (EKVX NSCLC): 29.3 µM | GI50 (HCC-2998 colon): 12.7 µM | TGI (HCC-2998 colon): 25.7 µM | GI50 (HCT-116 colon): 12.9 µM | TGI (HCT-116 colon): 26.1 µM | GI50 (HCT-15 colon): 27.5 µM | TGI (HCT-15 colon): > 100 µM | GI50 (HOP-62 NSCLC): 17.6 µM | TGI (HOP-62 NSCLC): 31.5 µM | GI50 (HOP-92 NSCLC): 17.8 µM | TGI (HOP-92 NSCLC): 34.1 µM | GI50 (HS 578T breast): 17.6 µM | TGI (HS 578T breast): 65.1 µM | GI50 (IGROV1 ovarian): 14.3 µM | TGI (IGROV1 ovarian): 27.6 µM | GI50 (K-562 leukemia): 24.9 µM | TGI (K-562 leukemia): 61.2 µM | GI50 (KM12 colon): 19.3 µM | TGI (KM12 colon): 48.7 µM | GI50 (LOX IMVI melanoma): 24.4 µM | TGI (LOX IMVI melanoma): > 100 µM | GI50 (M14 melanoma): 15.6 µM | TGI (M14 melanoma): 30.3 µM | GI50 (MALME-3M melanoma): 27.2 µM | TGI (MALME-3M melanoma): 68.9 µM | GI50 (MCF7 breast): 10.3 µM | TGI (MCF7 breast): 34.3 µM | GI50 (MDA-MB-231 breast): 16.7 µM | TGI (MDA-MB-231 breast): 34.2 µM | GI50 (MDA-MB-435): 19.9 µM | TGI (MDA-MB-435): 38.3 µM | GI50 (MOLT-4 leukemia): 17.8 µM | TGI (MOLT-4 leukemia): 36.6 µM | GI50 (NCI-H226 lung): 19.4 µM | TGI (NCI-H226 lung): 37.6 µM | GI50 (NCI-H23 lung): 14 µM | TGI (NCI-H23 lung): 28.9 µM | GI50 (NCI-H460 lung): 15.3 µM | TGI (NCI-H460 lung): 48.1 µM | GI50 (NCI-H522 lung): 13.7 µM | TGI (NCI-H522 lung): 27.2 µM | GI50 (NCI/ADR-RES ovarian): 15 µM | TGI (NCI/ADR-RES ovarian): 28.6 µM | GI50 (OVCAR-3 ovarian): 16.6 µM | TGI (OVCAR-3 ovarian): 37.6 µM | GI50 (OVCAR-4 ovarian): 12.3 µM | TGI (OVCAR-4 ovarian): 25.2 µM | GI50 (OVCAR-5 ovarian): 14.4 µM | TGI (OVCAR-5 ovarian): 28.1 µM | GI50 (OVCAR-8 ovarian): 18.2 µM | TGI (OVCAR-8 ovarian): 35.9 µM | GI50 (PC-3 prostate): 20.6 µM | TGI (PC-3 prostate): 36.1 µM | GI50 (RPMI-8226 leukemia): 22 µM | TGI (RPMI-8226 leukemia): 45.5 µM | GI50 (RXF 393 renal): 10.4 µM | TGI (RXF 393 renal): 25 µM | GI50 (SF-268 CNS): 21.5 µM | TGI (SF-268 CNS): 69.4 µM | GI50 (SF-295 CNS): 27.2 µM | TGI (SF-295 CNS): > 100 µM | GI50 (SF-539 CNS): 17.6 µM | TGI (SF-539 CNS): 31.9 µM | GI50 (SK-MEL-2 melanoma): 13.6 µM | TGI (SK-MEL-2 melanoma): 27 µM | GI50 (SK-MEL-5 melanoma): 15.7 µM | TGI (SK-MEL-5 melanoma): 32.5 µM | GI50 (SK-OV-3 ovarian): 16.3 µM | TGI (SK-OV-3 ovarian): 30 µM | GI50 (SN12C renal): 16.9 µM | TGI (SN12C renal): 31.6 µM | GI50 (SNB-19 CNS): 16.8 µM | TGI (SNB-19 CNS): 32.2 µM | GI50 (SR leukemia): 25.4 µM | TGI (SR leukemia): 56.9 µM | GI50 (SW-620 colon): 22.4 µM | TGI (SW-620 colon): 66.1 µM | GI50 (TK-10 renal): 36.7 µM | TGI (TK-10 renal): 87.4 µM | GI50 (U251 CNS): 28.9 µM | TGI (U251 CNS): > 100 µM | GI50 (UACC-257 melanoma): 15.5 µM | TGI (UACC-257 melanoma): 31.3 µM | GI50 (UACC-62 melanoma): 16 µM | TGI (UACC-62 melanoma): 30.6 µM | GI50 (UO-31 renal): 11.8 µM | TGI (UO-31 renal): 26.9 µM

Cc1ccccc1NC(=O)NC(Oc1ccccc1)(C(F)(F)F)C(F)(F)F
TGI (786-0 renal): > 100 µM | TGI (A498 renal): > 100 µM | TGI (ACHN renal): > 100 µM | TGI (BT-549 breast): > 100 µM | TGI (CAKI-1 renal): 97.5 µM | TGI (CCRF-CEM leukemia): > 100 µM | TGI (COLO 205 colon): > 100 µM | TGI (HCC-2998 colon): > 100 µM | TGI (HCT-116 colon): > 100 µM | TGI (HL-60(TB) leukemia): > 100 µM | TGI (HS 578T breast): > 100 µM | TGI (HT29 colon): > 100 µM | TGI (IGROV1 ovarian): > 100 µM | TGI (K-562 leukemia): > 100 µM | TGI (M14 melanoma): > 100 µM | TGI (MDA-MB-435): > 100 µM | TGI (MOLT-4 leukemia): > 100 µM | TGI (NCI-H23 lung): > 100 µM | TGI (NCI/ADR-RES ovarian): > 100 µM | TGI (OVCAR-5 ovarian): > 100 µM | TGI (RPMI-8226 leukemia): > 100 µM | TGI (RXF 393 renal): > 100 µM | TGI (SF-268 CNS): > 100 µM | TGI (SF-539 CNS): > 100 µM | TGI (SK-MEL-2 melanoma): > 100 µM | TGI (SK-MEL-28 melanoma): > 100 µM | TGI (SK-OV-3 ovarian): > 100 µM | TGI (SNB-19 CNS): > 100 µM | TGI (SNB-75 CNS): > 100 µM | TGI (SR leukemia): > 100 µM | TGI (T-47D breast): > 100 µM | TGI (U251 CNS): > 100 µM | TGI (UACC-257 melanoma): > 100 µM | TGI (UO-31 renal): > 100 µM
